Experimental data taken from patent US20250249056A1, “CANCER THERAPIES COMPRISING A NUCLEAR EXPORT INHIBITOR AND AN ONCOLYTIC VIRUS” (priority 2022, published 2025).

Tested on: Colo205 cells
Type: cell-based, human
Conditions: selinexor-treated nucleus vs MYXV + selinexor-treated nucleus

SMILES: O=C(/C=C\n1cnc(-c2cc(C(F)(F)F)cc(C(F)(F)F)c2)n1)NNc1cnccn1 [selinexor]
- Differential protein expression B2CWG0 m053R: 0.01
- Differential protein expression B2CWG4 m057L: 0.01
- Differential protein expression B2CWG5 m058R: 0.176
- Differential protein expression B2CWG7 m060R: 0.01
- Differential protein expression B2CWG8 m061R: 0.01
- Differential protein expression B2CWH0: 0.069
- Differential protein expression B2CWH1 m064R: 0.211
- Differential protein expression B2CWH3 m066R: 0.01
- Differential protein expression B2CWH6 m069L: 0.01
- Differential protein expression B2CWH8: 0.232
- Differential protein expression B2CWI0: 0.021
- Differential protein expression B2CWI3 m076R: 0.096
- Differential protein expression B2CWI4 m077L: 0.01
- Differential protein expression B2CWI6 m079R: 0.131
- Differential protein expression B2CWI7 m080R: 0.036
- Differential protein expression B2CWJ3: 0.01
- Differential protein expression B2CWJ5: 0.01
- Differential protein expression B2CWJ9 m092L: 0.16
- Differential protein expression B2CWK2 m095L: 0.029
- Differential protein expression B2CWL4: 0.01
- Differential protein expression B2CWL5 m108R: 0.088
- Differential protein expression B2CWL8 m111R: 0.101
- Differential protein expression B2CWM1: 0.083
- Differential protein expression B2CWM2 m115L: 0.077
- Differential protein expression B2CWP6 m139R: 0.04
- Differential protein expression B2CWP9 m142R: 0.01
- Differential protein expression B2CWQ5 m149R: 0.01
- Differential protein expression B2CWQ7: 0.229
- Differential protein expression B2CWR1 m156R: 0.022
- Differential protein expression D2WM37 m012L: 0.058
- Differential protein expression D2WMA0 m030L: 0.057
- Differential protein expression D2WN05 m078R: 0.021
- Differential protein expression D2WN26 m090L: 0.097
- Differential protein expression D2WN93 m151R: 0.255
- Differential protein expression D3W0C4 m130R: 0.01
- Differential protein expression E2CZH7 m088L: 0.01
- Differential protein expression E2CZJ6 m107L: 0.01
- Differential protein expression E2CZJ9 m110L: 0.01
- Differential protein expression E2CZK3 m114R: 0.083
- Differential protein expression E2CZL2 m123R: 0.277
- Differential protein expression E2CZL6 m127L: 0.025
- Differential protein expression E2CZM0 m131R: 0.01
- Differential protein expression E2CZM2 m133R: 0.048
- Differential protein expression E2CZP2 m001R: 0.037
- Differential protein expression E2CZQ3 m009L: 0.132
- Differential protein expression E2CZQ9 m014L: 0.092
- Differential protein expression E2CZR0 m015L: 0.04
- Differential protein expression E2CZR6 m021L: 0.133
- Differential protein expression E2CZV0 m055R: 0.052
- Differential protein expression E2CZV1 m056R: 0.01
- Differential protein expression E2CZV4 m059R: 0.01
- Differential protein expression E2CZW3 m068R: 0.052
- Differential protein expression E2CZW7 m072L: 0.211
- Differential protein expression E2CZY1 m086L: 0.01
- Differential protein expression K4JKC2 m073R: 0.021
- Differential protein expression O00584 RNASET2: 0.01
- Differential protein expression O10625 M-T1: 0.037
- Differential protein expression O55698 M-T4: 0.122
- Differential protein expression O76013 KRT36: 0.01
- Differential protein expression O76015 KRT38: 0.01
- Differential protein expression P01100 FOS: 0.211
- Differential protein expression P05090 APOD: 0.01
- Differential protein expression P07942 LAMB1: 0.128
- Differential protein expression P10909 CLU: 0.01
- Differential protein expression P14209 CD99: 0.01
- Differential protein expression P17066 HSPA6: 0.01
- Differential protein expression P17516 AKR1C4: 0.01
- Differential protein expression P50583 NUDT2: 0.01
- Differential protein expression P68544 PAPS: 0.044
- Differential protein expression P68550: 0.168
- Differential protein expression Q5BJH7 YIF1B: 0.161
- Differential protein expression Q5VVJ2 MYSM1: 0.01
- Differential protein expression Q6SJ93 FAM111B: 0.253
- Differential protein expression Q8IY95 TMEM192: 0.01
- Differential protein expression Q8TB72 PUM2: 0.01
- Differential protein expression Q8TDQ7 GNPDA2: 0.01
- Differential protein expression Q9P000 COMMD9: 0.213
- Differential protein expression Q9PX24 m007L: 0.087
- Differential protein expression Q9PX36 m006L: 0.035
- Differential protein expression Q9PXA3 m004L: 0.122
- Differential protein expression Q9Q8F0 m154L: 0.125
- Differential protein expression Q9Q8F9 m144R: 0.179
- Differential protein expression Q9Q8G2 m140R: 0.165
- Differential protein expression Q9Q8G4 m137R: 0.01
- Differential protein expression Q9Q8G6 m135R: 0.021
- Differential protein expression Q9Q8H2 m129R: 0.119
- Differential protein expression Q9Q8H9 m122R: 0.022
- Differential protein expression Q9Q8I1 m120L: 0.024
- Differential protein expression Q9Q8I4 m117L: 0.027
- Differential protein expression Q9Q8I6 m114R: 0.083
- Differential protein expression Q9Q8J1 m109L: 0.032
- Differential protein expression Q9Q8J4 m106L: 0.01
- Differential protein expression Q9Q8J5 m105L: 0.01
- Differential protein expression Q9Q8J9 m101L: 0.01
- Differential protein expression Q9Q8K1 m099L: 0.03
- Differential protein expression Q9Q8K3 m097R: 0.01
- Differential protein expression Q9Q8K6 m094R: 0.01
- Differential protein expression Q9Q8K7 m093L: 0.039
- Differential protein expression Q9Q8L1 m089L: 0.01
- Differential protein expression Q9Q8L3 m087L: 0.069
- Differential protein expression Q9Q8L8 m082R: 0.037
- Differential protein expression Q9Q8L9 VETFS: 0.087
- Differential protein expression Q9Q8M5 m075R: 0.01
- Differential protein expression Q9Q8M6 m074R: 0.047
- Differential protein expression Q9Q8M9 m071L: 0.232
- Differential protein expression Q9Q8N0 m070R: 0.01
- Differential protein expression Q9Q8N5: 0.069
- Differential protein expression Q9Q8N8 m058R: 0.176
- Differential protein expression Q9Q8P4 m052L: 0.029
- Differential protein expression Q9Q8P7 m049R: 0.051
- Differential protein expression Q9Q8Q1: 0.059
- Differential protein expression Q9Q8Q3 m043L: 0.067
- Differential protein expression Q9Q8Q6 m040L: 0.011
- Differential protein expression Q9Q8Q8 m038L: 0.023
- Differential protein expression Q9Q8R0 m036L: 0.099
- Differential protein expression Q9Q8R4 m032R: 0.01
- Differential protein expression Q9Q8R5 m031R: 0.011
- Differential protein expression Q9Q8S0 m026R: 0.039
- Differential protein expression Q9Q8S2 m020L: 0.191
- Differential protein expression Q9Q8S8 m013L: 0.172
- Differential protein expression Q9Q817 m113R: 0.037
- Differential protein expression Q9UHX3 ADGRE2: 0.01
- Differential protein expression Q9UJ68 MSRA: 0.202
- Differential protein expression Q9YQ03 mt6: 0.031
- Differential protein expression Q68DK2 ZFYVE26: 0.092
- Differential protein expression Q77P93 m003.2L: 0.049
- Differential protein expression Q77PB1 m003.1L: 0.145
- Differential protein expression Q86WV6 STING1: 0.01
- Differential protein expression Q96HD1 CRELD1: 0.01
- Differential protein expression Q96LJ7 DHRS1: 0.01
- Differential protein expression Q12913 PTPRJ: 0.01
- Differential protein expression Q16204 CCDC6: 0.249
- Differential protein expression Q58719 SFT2D3: 0.01
- Differential protein expression Q83604 MF13: 0.058
- Differential protein expression Q83730 m005R: 0.01
- Differential protein expression Q85296: 0.124
- Differential protein expression Q85297: 0.01
